According to patent US11771709B2, “ALK protein degradation agent and anti-tumor application thereof” (ShanghaiTech University, priority 2017, dated 2023):

Tests used:
[1] = molecular target: T1, ALK protein in H3122 (EML4-ALK) cells (Homo sapiens, UniProt Q9UM73); experiment: Western blot of ALK protein level (degradation, DC50), ALK phosphorylation and downstream signaling in H3122 cells; type: cell-based; details: for DC50: ALK protein degradation in H3122 cells
T1 construct: EML4 (Echinoderm microtubule-associated protein-like 4, Q9HC35) fusion partner, variant 1; host or cells: NCI-H3122 lung adenocarcinoma cells; the other entry of the earlier key: EML4 (Q9HC35, Echinoderm microtubule-associated protein-like 4)
T1 sequence (Q9UM73 with tags, fused parts or gaps): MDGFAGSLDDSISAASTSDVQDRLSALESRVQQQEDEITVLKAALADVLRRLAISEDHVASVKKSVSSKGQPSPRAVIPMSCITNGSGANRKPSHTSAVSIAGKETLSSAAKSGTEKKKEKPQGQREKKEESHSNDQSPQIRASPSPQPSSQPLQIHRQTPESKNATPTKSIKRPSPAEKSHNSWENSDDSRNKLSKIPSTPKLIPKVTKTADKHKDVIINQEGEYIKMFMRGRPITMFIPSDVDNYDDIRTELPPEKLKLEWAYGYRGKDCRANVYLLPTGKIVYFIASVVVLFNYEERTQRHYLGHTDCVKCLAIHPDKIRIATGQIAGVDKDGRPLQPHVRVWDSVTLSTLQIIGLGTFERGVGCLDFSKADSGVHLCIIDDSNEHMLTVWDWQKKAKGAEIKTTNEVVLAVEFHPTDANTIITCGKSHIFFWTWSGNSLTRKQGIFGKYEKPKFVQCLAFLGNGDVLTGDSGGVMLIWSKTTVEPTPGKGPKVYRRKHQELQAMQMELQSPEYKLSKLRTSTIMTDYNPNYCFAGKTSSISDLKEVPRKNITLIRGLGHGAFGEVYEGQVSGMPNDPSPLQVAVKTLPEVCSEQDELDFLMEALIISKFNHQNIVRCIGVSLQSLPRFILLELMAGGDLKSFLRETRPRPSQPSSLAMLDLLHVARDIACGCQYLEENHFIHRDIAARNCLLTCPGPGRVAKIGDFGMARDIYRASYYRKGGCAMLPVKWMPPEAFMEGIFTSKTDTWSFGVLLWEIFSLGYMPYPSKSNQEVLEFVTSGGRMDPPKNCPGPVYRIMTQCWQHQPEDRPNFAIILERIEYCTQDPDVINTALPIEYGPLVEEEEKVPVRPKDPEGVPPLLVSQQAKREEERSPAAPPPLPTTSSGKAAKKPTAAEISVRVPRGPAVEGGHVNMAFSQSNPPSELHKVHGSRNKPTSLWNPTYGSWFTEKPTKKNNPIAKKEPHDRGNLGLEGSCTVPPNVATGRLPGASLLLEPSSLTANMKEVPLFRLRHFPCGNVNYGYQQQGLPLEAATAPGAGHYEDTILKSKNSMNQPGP

SR (NPM-ALK) cells = experiment: Growth inhibition IC50 in ALCL SR cells (CCK8/WST, 72 hours); type: cell-based; details: 72 h, SR cells, WST; Brigatinib-based PROTAD molecules (Table 3)
Protocol: SR (NPM-ALK) and NCI-H2228 (EML4-ALK, V3) cells were purchased from ATCC. […] All Cells were cultured in RPMI1640 medium with 10% FBS and Penicillin-Streptomycin in 37° C. incubator with 5% CO2.
Cells were seeded at specific density in 96 well plates one day before treatment. […] Viable cells were measured via CCK8 reagent and IC50s were calculated via Prism Graphad. Experiments were repeated at least three times.

Structure (SMILES)	DC50 [1]	concentration at which ALK protein level was reduced ([1]; H3122 cells, western blot)	IC50 (SR (NPM-ALK) cells)
C[C@@H](Oc1cc(-c2cnn(C3CCN(C(=O)CCOCCOCCOCCOCCNc4cccc5c4C(=O)N(C4CCC(=O)NC4=O)C5=O)CC3)c2)cnc1N)c1c(Cl)ccc(F)c1Cl (stereo partly drawn) [SIAIS151060, 4-((15-(4-(4-(6-amino-5-((R)-1-(2,6-dichloro-3-fluorophenyl)ethoxy)pyridin-3-yl)-1H-pyrazol-1-yl)piperidin-1-yl)-15-oxo-3,6,9,12-tetraoxapentadecyl)amino)-2-(2,6-dioxopiperidin-3-yl)isoindoline-1,3-dione]	100 to 500 nM		
C[C@@H](Oc1cc(-c2cnn(C3CCN(C(=O)CCCCNc4cccc5c4C(=O)N(C4CCC(=O)NC4=O)C5=O)CC3)c2)cnc1N)c1c(Cl)ccc(F)c1Cl (stereo partly drawn) [SIAIS151082, 4-((5-(4-(4-(6-amino-5-((R)-1-(2,6-dichloro-3-fluorophenyl)ethoxy)pyridin-3-yl)-1H-pyrazol-1-yl)piperidin-1-yl)-5-oxopentyl)amino)-2-(2,6-dioxopiperidin-3-yl)isoindoline-1,3-dione]	1 to 10 nM	about 50 nM	
C[C@@H](Oc1cc(-c2cnn(C3CCN(C(=O)CNc4cccc5c4C(=O)N(C4CCC(=O)NC4=O)C5=O)CC3)c2)cnc1N)c1c(Cl)ccc(F)c1Cl (stereo partly drawn) [SIAIS151083, 4-((2-(4-(4-(6-amino-5-((R)-1-(2,6-dichloro-3-fluorophenyl)ethoxy)pyridin-3-yl)-1H-pyrazol-1-yl)piperidin-1-yl)-2-oxoethyl)amino)-2-(2,6-dioxopiperidin-3-yl)isoindoline-1,3-dione]	10 to 50 nM		
COc1cc(N2CCC(NC(=O)CCOCCNc3cccc4c3C(=O)N(C3CCC(=O)NC3=O)C4=O)CC2)ccc1Nc1ncc(Cl)c(Nc2ccccc2P(C)(C)=O)n1 (centres unmarked) [SIAIS151113]	100 to 500 nM		7.5 ± 5.2 nM
COc1cc(N2CCC(NC(=O)CCOCCOCCNc3cccc4c3C(=O)N(C3CCC(=O)NC3=O)C4=O)CC2)ccc1Nc1ncc(Cl)c(Nc2ccccc2P(C)(C)=O)n1 (centres unmarked) [SIAIS151114, N-(1-(4-((5-chloro-4-((2-(dimethylphosphoryl)phenyl)amino)pyrimidin-2-yl)amino)-3-methoxyphenyl)piperidin-4-yl)-3-(2-(2-((2-(2,6-dioxopiperidin-3-yl)-1,3-dioxoisoindolin-4-yl)amino)ethoxy)ethoxy)propenamide]	100 to 500 nM		10.9 ± 7.5 nM
COc1cc(N2CCC(NC(=O)CCOCCOCCOCCNc3cccc4c3C(=O)N(C3CCC(=O)NC3=O)C4=O)CC2)ccc1Nc1ncc(Cl)c(Nc2ccccc2P(C)(C)=O)n1 (centres unmarked) [SIAIS151115, N-(1-(4-((5-chloro-4-((2-(dimethylphosphoryl)phenyl)amino)pyrimidin-2-yl)amino)-3-methoxyphenyl)piperidin-4-yl)-3-(2-(2-(2-((2-(2,6-dioxopiperidin-3-yl)-1,3-dioxoisoindolin-4-yl)amino)ethoxy)ethoxy)ethoxy)propenamide]	100 to 500 nM		8 ± 3.2 nM
COc1cc(N2CCC(NC(=O)CCOCCOCCOCCOCCNc3cccc4c3C(=O)N(C3CCC(=O)NC3=O)C4=O)CC2)ccc1Nc1ncc(Cl)c(Nc2ccccc2P(C)(C)=O)n1 (centres unmarked) [SIAIS151116, N-(1-(4-((5-chloro-4-((2-(dimethylphosphoryl)phenyl)amino)pyrimidin-2-yl)amino)-3-methoxyphenyl)piperidin-4-yl)-1-((2-(2,6-dioxopiperidin-3-yl)-1,3-dioxoisoindolin-4-yl)amino)-3,6,9,12-tetraoxapentadecan-15-amide]	100 to 500 nM		15.3 ± 9.8 nM
COc1cc(N2CCC(N3CCN(C(=O)CCCNc4cccc5c4CN(C4CCC(=O)NC4=O)C5=O)CC3)CC2)ccc1Nc1ncc(Cl)c(Nc2ccccc2P(C)(C)=O)n1 (centres unmarked) [SIAIS219155, 3-(4-((4-(4-(1-(4-((5-chloro-4-((2-(dimethylphosphoryl)phenyl)amino)pyrimidin-2-yl)amino)-3-methoxyphenyl)piperidin-4-yl)piperazin-1-yl)-4-oxobutyl)amino)-1-oxoisoindolin-2-yl)piperidine-2,6-dione]			4.34 ± 0.4 nM
COc1cc(N2CCC(N3CCN(C(=O)CCCCNc4cccc5c4CN(C4CCC(=O)NC4=O)C5=O)CC3)CC2)ccc1Nc1ncc(Cl)c(Nc2ccccc2P(C)(C)=O)n1 (centres unmarked) [SIAIS219156, 3-(4-((5-(4-(1-(4-((5-chloro-4-((2-(dimethylphosphoryl)phenyl)amino)pyrimidin-2-yl)amino)-3-methoxyphenyl)piperidin-4-yl)piperazin-1-yl)-5-oxopentyl)amino)-1-oxoisoindolin-2-yl)piperidine-2,6-dione]			3.09 ± 0.2 nM
COc1cc(N2CCC(N3CCN(C(=O)CCCCCNc4cccc5c4CN(C4CCC(=O)NC4=O)C5=O)CC3)CC2)ccc1Nc1ncc(Cl)c(Nc2ccccc2P(C)(C)=O)n1 (centres unmarked) [SIAIS219157, 3-(4-((6-(4-(1-(4-((5-chloro-4-((2-(dimethylphosphoryl)phenyl)amino)pyrimidin-2-yl)amino)-3-methoxyphenyl)piperidin-4-yl)piperazin-1-yl)-6-oxohexyl)amino)-1-oxoisoindolin-2-yl)piperidine-2,6-dione]			1.99 ± 0.2 nM
COc1cc(N2CCC(N3CCN(C(=O)CCc4cccc5c4C(=O)N(C4CCC(=O)NC4=O)C5=O)CC3)CC2)ccc1Nc1ncc(Cl)c(Nc2ccccc2P(C)(C)=O)n1 (centres unmarked) [SIAIS219158, 4-(3-(4-(1-(4-((5-chloro-4-((2-(dimethylphosphoryl)phenyl)amino)pyrimidin-2-yl)amino)-3-methoxyphenyl)piperidin-4-yl)piperazin-1-yl)-3-oxopropyl)-2-(2,6-dioxopiperidin-3-yl)isoindoline-1,3-dione]			30.3 ± 3.8 nM
COc1cc(N2CCC(NC(=O)CCc3cccc4c3C(=O)N(C3CCC(=O)NC3=O)C4=O)CC2)ccc1Nc1ncc(Cl)c(Nc2ccccc2P(C)(C)=O)n1 (centres unmarked) [SIAIS219170, N-(1-(4-((5-chloro-4-((2-(dimethylphosphoryl)phenyl)amino)pyrimidin-2-yl)amino)-3-methoxyphenyl)piperidin-4-yl)-3-(2-(2,6-dioxopiperidin-3-yl)-1,3-dioxoisoindolin-4-yl)propanamide]			10.8 ± 1.4 nM
COc1cc(N2CCC(NCCCCNc3cccc4c3C(=O)N(C3CCC(=O)NC3=O)C4=O)CC2)ccc1Nc1ncc(Cl)c(Nc2ccccc2P(C)(C)=O)n1 (centres unmarked) [SIAIS220026, 4-((4-((1-(4-((5-chloro-4-((2-(dimethylphosphoryl)phenyl)amino)pyrimidin-2-yl)amino)-3-methoxyphenyl)piperidin-4-yl)amino)butyl)amino)-2-(2,6-dioxopiperidin-3-yl)isoindoline-1,3-dione]			7.4 nM
COc1cc(N2CCC(N3CCN(CCNc4cccc5c4C(=O)N(C4CCC(=O)NC4=O)C5=O)CC3)CC2)ccc1Nc1ncc(Cl)c(Nc2ccccc2P(C)(C)=O)n1 (centres unmarked) [SIAIS220027, 4-((2-(4-(1-(4-((5-chloro-4-((2-(dimethylphosphoryl)phenyl)amino)pyrimidin-2-yl)amino)-3-methoxyphenyl)piperidin-4-yl)piperazin-1-yl)ethyl)amino)-2-(2,6-dioxopiperidin-3-yl)isoindoline-1,3-dione]			3.8 nM
COc1cc(N2CCC(N(C)C(=O)CCCNc3cccc4c3C(=O)N(C3CCC(=O)NC3=O)C4=O)CC2)ccc1Nc1ncc(Cl)c(Nc2ccccc2P(C)(C)=O)n1 (centres unmarked) [SIAIS220030, N-(1-(4-((5-chloro-4-((2-(dimethylphosphoryl)phenyl)amino)pyrimidin-2-yl)amino)-3-methoxyphenyl)piperidin-4-yl)-4-((2-(2,6-dioxopiperidin-3-yl)-1,3-dioxoisoindolin-4-yl)amino)-N-methylbutanamide]			5.8 nM
